Assay results taken from US5369111A, “Modulator agent and use thereof” (University of Vermont, priority 1992, dated 1994).

Legend:
[1] = test system: RCC-5 cells; assay: Modulation of intrinsic drug resistance, RCC-5; type: cell-based, rat; settings: VCR
Method: Mid-exponential cultures were used for all assays. The RCC-2 and RCC-5 cell lines were seeded into 24-well plates at 2×10^4 cells/well and allowed to attach to the substratum for 16-18 h prior to treatment. The S180 cell lines were seeded into culture tubes at 1×10^5 cells/ml and treated immediately. Cytotoxicity was determined by quantitation of population growth after 72 h incubation by electronic particle counter (Coulter Electronics, Hialeah, Fla.). The human tumor cell lines were used in a clonogenic assay for cytotoxicity. Cells were seeded at 300 cells/dish, incubated overnight and then treated. Colonies were scored 7-11 days later. In all assays of analog modulation of drug sensitivity, the analog was added minutes prior to the addition of cytotoxic drug.
*calculated as the IC50 of the drug alone divided by the IC50 o
the [drug modulator] combination. Data are presented from tretments with
the nontoxic concentration limit of each analog as noted.
FIG. 9 represents the modulation of VCR sensitivity in the RCC-12 (A) and RCC-5 (B) cell lines by the analog C-20'-deoxy deethyl vincovaline. Population growth was determined after 72 hours incubation in the absence (o), or presence of 10 μM (o), 20 μM (Δ), or 50 μM of analog. Data presented are from a typical experiment.

[2] = test system: S180 MDR cell strains A3 and A10; assay: Modulation of acquired drug resistance in the S180 MDR cell strains A3 and A10; type: cell-based, murine; settings: VBL, VCR and ADM
In short: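 MDR S180 lines in tubes (1×10^5 cells/ml) exposed to graded modulator added minutes before ADM, VBL or VCR at parental IC70s (2.0×10^-7 M ADM, 1.5×10^-8 M VBL, 4.5×10^-8 M VCR). Growth counted electronically at 72 h. Reversing concentration = minimum modulator giving 70% inhibition; duplicates, two experiments.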

SMILES: CC[C@]12C=CCN3CC[C@@]4(c5cc([C@]6(C(=O)OC)C[C@H]7CCCN(CCc8c6[nH]c6ccccc86)C7)c(OC)cc5N(C)[C@H]4[C@@](O)(C(=O)OC)[C@@H]1OC(C)=O)[C@@H]32 [analog n° 352, C-20'-deoxy-20'-deethyl-C-14', 16'-epi-VBL]
- maximum sensitization to VCR ([1]; RCC-5): 28 fold
- concentration overcoming the greater intrinsic resistance of RCC-5 to VCR ([1]; RCC-5 compared to RCC-2): 10 to 20 µM
- range of resistance levels over which parental sensitivity was restored [2]: 3-17 fold
